Source: article PMC10033663, “Acute pharmacological profile of 2C-B-Fly-NBOMe in male Wistar rats—pharmacokinetics, effects on behaviour and thermoregulation” (Frontiers in Pharmacology, 2023)
“Also recorded” adds a separate entry of the source. Read-outs that look alike come from different tables or passages of the source.

Legend:
[1] = Pharmacokinetics of 2C-B-Fly-NBOMe in blood serum and brain tissue (LC/MS); assay type: in vivo, male Wistar rats; conditions: for k el: read-out: ke (h^-1) elimination rate constant (converted)
Method: For the pharmacokinetic study, rats were treated with 1 mg/kg s. c. of 2C-B-Fly-NBOMe and then sacrificed by decapitation after 0.5, 1, 2, 4, 8 and 24 h (n = 8 per time point). Collected blood was left to clot in a refrigerator for 1 h, then centrifuged for 10 min at 1500 g, 10°C, and the separated serum was collected. Whole brains were excised manually using surgical instruments. All serum and brain samples were stored at −20°C until the analysis.
200 μl of blood serum was diluted in a microtube with 200 μl of 1% ammonia solution and homogenized in a Bullet Blender tissue homogenizer (speed 2, time 5 min). Next, 400 μl of ethyl acetate was added by the automatic dispenser and the whole content was homogenized again (speed 3, time 5 min), additional 400 μl of ethyl acetate was added and the sample was homogenized for the last time. The homogenate was centrifuged (10 min, 25°C, 12,000 RPM), 600 μl of the top layer was transferred into a new microtube and 50 μl of 10% formic acid solution was added. After proper shaking, the solution was evaporated in the CentriVap concentrator. The residue was then dissolved in 100 μl of methanol and shaken for 10 min. Prior to the analysis, the solution was diluted 1:1 in deionized water, mixed and centrifuged.
100 µL of 1% ammonium hydroxide solution was added to 200 mg of brain tissue. A mixture was homogenized with 200 mg of zirconium oxide beads in a BulletBlender for 10 min (speed 5). 400 μL of ethyl acetate was added to the mixture and homogenized (BulletBlender, speed 3, time 5 min). Additional 400 µL of ethyl acetate was added to the mixture and homogenized (BulletBlender, speed 3, time 5 min). Samples were centrifuged (10 min, 25°C, 12,000 RPM), 400 µL of supernatant was acidified and completely evaporated (Centrivap Concentrator). The dry residue was reconstituted with 400 µL of methanol. Prior to the analysis, 250 µL of the solution was diluted with 750 µL of water, mixed, and centrifuged (0.2 µm PVDF filter).
The samples were analysed using ultra-high performance liquid chromatography-tandem mass spectrometry instrumentation (1,290 Infinity—6,460 Triple Quadrupole LC/MS Agilent Technologies with AJS electrospray ionization source). A column Kinetex Biphenyl (100 × 2.1 mm, 2.6 µm) with a pre-column was used for a chromatographic separation at 35°C with gradient elution in a system of 5 mM ammonium formate with 0.01% (v/v) formic acid (mobile phase A) and methanol with 0.01% (v/v) formic acid (mobile phase B). The gradient started at 10% B, increased from 10% to 50% B in 0.5 min and from 50% to 100% B in 1.5 min, held for 2 min at 100% B, decreased to 10% B in 0.5 min and held for 2 min at 10% B. Data were acquired in positive electrospray ionization (ESI) mode using a multiple reaction monitoring method, one quantification ion and three confirmation ions were used. 2C-B-Fly-NBOMe was quantified using an external matrix-matched calibration. The limit of quantification was 1 ng/ml (1 ng/g for brain tissue). The matrix-matched calibration was performed in duplicates; real samples were also processed in duplicates.
For the pharmacokinetic data, a one-compartment model with a first-order absorption equation ([Wijnand, 1988]) was fitted using a cubic spline interpolation: Ct=D·ka·F/V/ka−ke×expke·t−exp(−ka·t Where C = 2C-B-Fly-NBOMe concentration, t = time, D = dose, ka = absorption rate constant, F = bioavailability, V = volume of distribution, ke = elimination rate constant.
The half-life of the drug elimination was calculated using Package PKNCA version 0.9.4 implemented in R software ([Buckeridge et al., 2015]).

male Wistar rats = experiment: Open field test (OFT); assay type: in vivo
Method: OFT was performed in a black square plastic arena (80 × 80 × 40 cm) in an evenly lit and sound-proof testing room. Rats were individually placed into the centre and allowed to explore the arena for 30 min while their behaviour was recorded. The experimental arena was cleaned with 70% ethanol after each subject. Arena was virtually divided into a 5 × 5 grid of identical squares; 16 squares were located next to the walls (peripheral zone) and 9 squares were in the centre (central zone). Software EthoVision XT 14.0 software (Noldus, Netherlands) was used to capture raw data used in the calculation of the following dependent variables: trajectory length (cm; corrected for deviations of <3 cm) and its temporal dynamics in 5 min intervals; thigmotaxis (∑fperipheral zones/∑fall zones, f = frequency of appearance in the zone) reflecting the probability of appearance in the peripheral zone; Tcenter reflecting time spent in the centre of the arena (∑timecentral zones).
Locomotor activity in OFT (mean trajectory length across 5 min blocks) was evaluated using a 2 × 4 × 6 mixed factorial ANOVA with temporal testing onset (15 or 60 min) and drug treatment (2C-B-Fly-NBOMe 0.2, 1, or 5 mg/kg or ctrl) as between-subjects factors, and time blocks (6 × 5 min intervals) as a within-subjects factor. Spatial distribution of animal movement in OFT (thigmotaxis and T center) and PPI parameters (habituation, ASR and % of PPI) were each analysed using a 2 × 4 factorial ANOVA with temporal testing onset (15 or 60 min) and drug treatment (2C-B-Fly-NBOMe 0.2, 1, or 5 mg/kg or ctrl) as between-subjects factors.

[2] = PET; ref Ettrup et al., 2011; cited from earlier work
[3] = brain, 1 mg/kg s. c., mean ± SEM
[4] = male, Wistar, rat, sc, brain, 1 mg/kg s. c., mean ± SEM
[5] = male, Wistar, rat, sc, serum, 1 mg/kg s. c., mean ± SEM
[6] = serum, 1 mg/kg s. c., mean ± SEM
[7] = 0.2, 1 and 5 mg/kg s. c., 15 and 60 min onset

## COc1ccccc1CNCCc1c2c(c(Br)c3c1OCC3)OCC2 [2C-B-Fly-NBOMe]
[1]; blood serum, 1 mg/kg s. c.
  Maximum mean concentration: 28 ng/mL
  Time of maximum mean concentration: ≤ 0.5 h
[1]; brain tissue, 1 mg/kg s. c.
  Time of peak drug concentration: 60 min
[1]; brain versus serum concentration, 1 mg/kg s. c.
  passage through the blood-brain barrier: readily passes through the blood-brain barrier
[1]; [3]
  AUC0-24 h: 826.3 ± 112.6 ng·h/g
  ka (h^-1) absorption rate constant: 0.685 ± 0.034 h⁻¹
[1]; male, Wistar, rat, sc, brain, 1 mg/kg s. c.
  Tmax: 1.1 h
[1]; male, Wistar, rat, sc, brain, 1 mg/kg s. c., Table 1, read-out: t1/2 (converted)
  half-life: 3.2 h
[1]; [4]
  Cmax: 159 ± 15.3 ng/g
  k el: 0.655 h⁻¹
[1]; male, Wistar, rat, sc, serum, 1 mg/kg s. c.
  Tmax: 0.8 h
[1]; male, Wistar, rat, sc, serum, 1 mg/kg s. c., Table 1, read-out: t1/2 (converted)
  half-life: 2.55 h
[1]; [5]
  Cmax: 28.4 ± 6.33 ng/mL
  k el: 0.733 h⁻¹
[1]; male, Wistar, rat, sc, serum, 1 mg/kg s. c., mean ± SEM, one-compartment model, read-out: F (%) bioavailability
  bioavailability: 96.1 ± 4.8%
[1]; male, Wistar, rat, sc, serum, 1 mg/kg s. c., mean ± SEM, read-out: AUC0-24 h
  AUC(0-t): 115 ± 25.6 ng·h/mL
[1]; male, Wistar, rat, subcutaneous, blood serum, 1 mg/kg s. c., read-out: half-life of elimination (converted)
  half-life: 1.56 h
[1]; male, Wistar, rat, subcutaneous, brain, 1 mg/kg s. c., read-out: half-life of elimination (converted)
  half-life: 2.4 h
[1]; male, Wistar, rat, subcutaneous, brain, 8 h after 1 mg/kg s. c.
  concentration at 8 h: 21 ng/g
[1]; serum, 1 mg/kg s. c.
  Time of peak drug concentration: 30 min
[1]; [6]
  V d (mL) volume of distribution: 7.231 ± 0.362 mL
  ka (h^-1) absorption rate constant: 0.731 ± 0.036 h⁻¹
[1]; serum, 8 h after 1 mg/kg s. c.
  presence in serum after 8 h: almost undetectable
Male Wistar rats; [7]
  Tcentre (time spent in the centre of the arena): not affected
  thigmotaxis: not affected
Male Wistar rats; 0.2, 1 and 5 mg/kg s. c., 15 and 60 min testing onset
  total trajectory length (locomotor activity) versus ctrl: dose-dependently reduced; also recorded: significant differences in all remaining groups versus ctrl except for 0.2 mg/kg of 2C-B-Fly-NBOMe in the 60 min onset
Male Wistar rats; 0.2, 1 and 5 mg/kg s. c., both testing onsets
  Locomotor habituation: dose-dependently disturbed
Male Wistar rats; 15 min onset, 1 mg/kg s. c., p < 0.05
  locomotion in 5 min time blocks versus ctrl: persisted until the fourth block
Male Wistar rats; 15 min onset, 5 mg/kg s. c., p < 0.05–0.001
  locomotion in 5 min time blocks versus ctrl: significant hypolocomotion during the whole session
Male Wistar rats; 15 min onset, all the doses (0.2, 1, 5 mg/kg s. c.), p < 0.001
  locomotion in 5 min time blocks versus ctrl: significantly decreased activity in the first three blocks
Male Wistar rats; 60 min onset, 1 mg/kg and 5 mg/kg groups, p < 0.01–0.001
  locomotion in 5 min time blocks versus ctrl: persisted to the fifth block
Male Wistar rats; 60 min onset, all groups (0.2, 1, 5 mg/kg s. c.), p < 0.05–0.001
  locomotion in 5 min time blocks versus ctrl: reduced activity in the first two blocks
[2]
  cortical uptake: highest cortical uptake among the examined NBOMes
  penetration of brain tissue: readily penetrated the brain tissue
